Test results taken from patent US12344610B2, “APOL1 inhibitors and methods of use” (Maze Therapeutics, Inc., priority 2022, dated 2025).

How the values were obtained:
Type in all cases: cell-based
[1] = test system: HEK293 cells overexpressing APOL1 G2; experiment: APOL1 G2 HEK293 cell rescue assay (reversal of cell death caused by overexpression of APOL1); conditions: Homo sapiens, HEK293, HEK293 overexpressing APOL1 G2; geometric mean of at least 2 assay runs; † = single assay run
How it was run: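 EC50 is the half-maximal effective concentration for reversing cell death driven by APOL1 G2 overexpression in HEK293 cells. Reported as geometric mean of at least 2 runs on separate days, each run averaging duplicate wells per plate; some values from a single run.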

[2] = test system: HEK293 clonal cell line overexpressing APOL1 G1; experiment: APOL1 G1 HEK293 cell rescue assay (Example B3); conditions: Homo sapiens, HEK293, HEK293 clonal line overexpressing APOL1 G1; geometric mean of at least 2 runs; † = single run; ¥ = concentration at 50% rescue estimated (no sigmoidal curve)
How it was run: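 HEK293 clonal line overexpressing APOL1 G1; EC50 is half-maximal reversal of APOL1-induced cell death. Values are the geometric mean of ≥2 runs on separate days, each run the average of duplicate wells. Where no sigmoidal curve could be fitted, the concentration giving 50% rescue was estimated.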

[3] = test system: Trypanosoma brucei Lister 427 VSG221 with APOL1 G2 recombinant protein; experiment: APOL1 G2 trypanosome cell rescue assay (Example B5); conditions: Trypanosoma brucei, 20 h, read-out: APOL1 G2 Trypanosome Rescue EC50, Trypanosoma brucei Lister 427 VSG221 with APOL1 G2 recombinant protein, 20 hours, CellTiter-Glo; geometric mean of at least 2 assay runs; † = single assay run
Experimental: (§1) APOL1 G0/G1/G2 viability assay for measurement of cytotoxicity reversal by compound in trypanosomes (APOL1 G0/G1/G2 trypanosome cell rescue assay).
(§2) APOL1 protein expression and purification. The mature from of APOL1 proteins, residues 28-398, were expressed from a pET28a vector with an N-terminal His-tag and TEV cleavage site. Proteins were expressed in Escherichia coli BL21-CodonPlus (DE3)-RIPL cells. Liter cultures of terrific broth were grown at 37° C. until an OD600 of ˜0.8 was reached and then induced with isopropyl β-D-1-thiogalactopyranoside (IPTG; final concentration of 500 μM). Afterwards, cultures were grown for 3 hours at 37° C. For protein purification, cell pellets were resuspended in lysis buffer (50 mM Tris, pH 8.5, 5 mM EDTA, 0.5 mM DTT, 0.5 mM PMSF) supplemented with a cocktail of protease inhibitors. Cells were lysed by sonication, centrifuged, and the resulting pellet was collected. The homogenized pellet was resuspended in wash buffer (50 mM Tris, pH 8.5, 0.5 M NaCl, 5 mM EDTA, 0.5 mM DTT, 0.5 mM PMSF, protease inhibitor cocktail) and collected by centrifugation. Inclusion body dissolution was then conducted as previously reported (PNAS 112(9) (2015) 2894-2899; www.pnas.org/cgi/doi/10.1073/pnas.1421953112; herein incorporated by reference in its entirety). The solubilized APOL1 protein was applied to a nickel column (HisTrap, GE Life Sciences) preequilibrated in buffer A (50 mM Tris, pH 8.5, 0.15 M NaCl, 1% zwittergent 3-14, protease inhibitor cocktail). The resin was washed with buffer B (50 mM Tris, pH 8.5, 0.15 M NaCl, 0.1% DDM) and TEV cleavage was conducted on column overnight. Afterwards, the column was washed with buffer B, followed by His-washing buffer (50 mM Tris, pH 8.5, 0.15 M NaCl, 0.1% DDM, 10 mM imidazole). The protein was then removed from the resin using His-elution buffer (50 mM Tris, pH 8.5, 0.15 M NaCl, 0.1% DDM, 250 mM imidazole). The sample was further purified by size exclusion chromatography using a Superdex 200 Increase column (GE Life Sciences) in 50 mM Tris, pH 8.5, 0.15 M NaCl, and 0.1% DDM buffer. All APOL1 proteins (G0, G1, and G2) were generated at Viva Biotech (Shanghai) Ltd.
(§3) Modified HMI-9 media preparation (https://tryps.rockefeller.edu/trypsru2_culture_media_preparation.html; herein incorporated by reference in its entirety). Trypanosomes were cultured in modified HMI-9 media consisting of IMDM (ThermoFisher, 12440053), 10% heat-inactivated FBS (Gibco, 10082-147), 10% Serum Plus (Sigma-Aldrich, 14008C), 1×HMI-9 supplement stock, and 1% hypoxanthine stock. The 10×HMI-9 supplement stock was made by dissolving 280 mg bathocuproine disulfonic acid (Sigma-Aldrich, 146625), 1820 mg cysteine (add after bathocuproine) (Sigma-Aldrich, 30089), 1100 mg pyruvic acid (Sigma-Aldrich, 107360), 100 mg uracil (Sigma-Aldrich, U0750), 100 mg cytosine (Sigma-Aldrich, C3506) and 140 μL 2-mercaptoethanol (Sigma-Aldrich, M3148) in 1000 mL of water. The resulting solution was aliquoted and stored at −20° C. The hypoxanthine stock was made by dissolving 4 g of NaOH into 1000 mL of water. Afterwards, 13.6 g hypoxanthine (Sigma-Aldrich, H9377) was added to this mixture. The resulting solution was aliquoted and stored at −20° C.
(§4) Assay Setup. Trypanosoma brucei Lister 427 VSG221 (ATCC, PRA-382) cells were cultured in modified HMI-9 media. All experiments were performed in 384-well, white, solid bottom, tissue culture treated plates (Greiner, 781080). Assay ready plates were generated with duplicate 11-point compound dilution series that consisted of 2-fold stepwise dilutions (0.4% DMSO final). To each well, was added 20 μL of 2 μg/mL of APOL1 G0, G1, or G2 recombinant protein in modified HMI-9 media using a MultiDrop Combi (final APOL1 protein concentration=[…]). Trypanosomes were counted using a hemacytometer and diluted in modified HMI-9 media to a concentration of 1.25×10^4 cell/mL. […]

[4] = test system: Trypanosoma brucei Lister 427 VSG221 with APOL1 G1 recombinant protein; experiment: APOL1 G1 trypanosome cell rescue assay (Example B5); conditions: Trypanosoma brucei, 20 h, read-out: APOL1 G1 Trypanosome Rescue EC50, Trypanosoma brucei Lister 427 VSG221 with APOL1 G1 recombinant protein, 20 hours, CellTiter-Glo; geometric mean of at least 2 assay runs; † = single assay run
Experimental: as §1, §2, §3, §4

[5] = test system: Trypanosoma brucei Lister 427 VSG221 with APOL1 G0 recombinant protein; experiment: APOL1 G0 trypanosome cell rescue assay (Example B5); conditions: Trypanosoma brucei, 20 h, read-out: APOL1 G0 Trypanosome Rescue EC50, Trypanosoma brucei Lister 427 VSG221 with APOL1 G0 recombinant protein, 20 hours, CellTiter-Glo; geometric mean of at least 2 assay runs; † = single assay run
Experimental: as §1, §2, §3, §4

| Compound | EC50 [1] [nM] | EC50 [2] [nM] | EC50 [3] [nM] | EC50 [4] [nM] | EC50 [5] [nM] |
| --- | --- | --- | --- | --- | --- |
| C[C@]1(O)C[C@@H](n2cnc3cc(OCCN4CCC5(CC4)C(=O)Nc4ccc(Cl)cc45)cnc32)C1 [Compound 367, 5-chloro-1′-[2-({3-[(cis)-3-hydroxy-3-methylcyclobutyl]-3H-imidazo[4,5-b]pyridin-6-yl}oxy)ethyl]-1,2-dihydrospiro[indole-3,4′-piperidin]-2-one] | 87.7 | 145 | 106 | 323 | 231 |
| C[C@]1(O)C[C@@H](N2C(=O)CCc3cc(OCCN4CCC5(CC4)C(=O)Nc4ccc(C#N)cc45)cnc32)C1 [Compound 404, 2-oxo-1′-[2-({7-oxo-8-[(cis)-3-hydroxy-3-methylcyclobutyl]-5,6,7,8-tetrahydro-1,8-naphthyridin-3-yl}oxy)ethyl]-1,2-dihydrospiro[indole-3,4′-piperidine]-5-carbonitrile] | 129 | 247 | 210 | 554 | 425 |
| CC1(O)CN(c2ncc(OCCN3CCC4(CC3)C(=O)Nc3ccc(Cl)cc34)cc2C(F)(F)F)C1 [Compound 405, 5-chloro-1′-(2-{[6-(3-hydroxy-3-methylazetidin-1-yl)-5-(trifluoromethyl)pyridin-3-yl]oxy}ethyl)-1,2-dihydrospiro[indole-3,4′-piperidin]-2-one] | 9.59 | 19.2 | 8.06 | 21.6 | 20 |
| C[C@]1(O)C[C@@H](n2c(=O)ccc3cc(OCCN4CCC5(CC4)C(=O)Nc4ccc(C#N)cc45)cnc32)C1 [Compound 406, 2-oxo-1′-[2-({7-oxo-8-[(cis)-3-hydroxy-3-methylcyclobutyl]-7,8-dihydro-1,8-naphthyridin-3-yl}oxy)ethyl]-1,2-dihydrospiro[indole-3,4′-piperidine]-5-carbonitrile] | 58.3 | 109 | 51.1 | 128 | 107 |
| CC1(O)CC(n2ncc3cc(OCCN4CCC5(CC4)C(=O)Nc4ccc(Cl)cc45)cnc32)C1 (stereo not drawn) [Compound 407, 5-chloro-1′-(2-{[1-(3-hydroxy-3-methylcyclobutyl)-1H-pyrazolo[3,4-b]pyridin-5-yl]oxy}ethyl)-1,2-dihydrospiro[indole-3,4′-piperidin]-2-one] | 24.1 | 46.3 | 33 | 99.7 | 72.4 |
| CC1(C)OCC(c2ncc(OCCN3CCC4(CC3)C(=O)Nc3ccc(Cl)cc34)cn2)O1 (stereo not drawn) [Compound 441, 5-chloro-1′-(2-{[2-(2,2-dimethyl-1,3-dioxolan-4-yl)pyrimidin-5-yl]oxy}ethyl)-1,2-dihydrospiro[indole-3,4′-piperidin]-2-one] | 57.4 | 96.1 | 78.3 | 215 | 144 |
| C[C@]1(O)C[C@@H](c2nc3cc(OCCN4CCC5(CC4)C(=O)Nc4ccc(Cl)cc45)cc(C(F)(F)F)c3[nH]2)C1 [Compound 466, 5-chloro-1′-[2-({2-[(cis)-3-hydroxy-3-methylcyclobutyl]-7-(trifluoromethyl)-1H-1,3-benzodiazol-5-yl}oxy)ethyl]-1,2-dihydrospiro[indole-3,4′-piperidin]-2-one] | 4.26 | 8.71 | 11.9 | 30.6 | 19.4 |
| C[C@]1(O)C[C@@H](n2c(=O)n(CO)c3cc(OCCN4CCC5(CC4)C(=O)Nc4ccc(Cl)cc45)cc(C(F)(F)F)c32)C1 [Compound 467, 5-chloro-1′-(2-{[3-(hydroxymethyl)-2-oxo-1-[(cis)-3-hydroxy-3-methylcyclobutyl]-7-(trifluoromethyl)-2,3-dihydro-1H-1,3-benzodiazol-5-yl]oxy}ethyl)-1,2-dihydrospiro[indole-3,4′-piperidin]-2-one] | 4.74 | 14.3 | 2.24 | 6.03 | 3.74 |
| C[C@]1(O)C[C@@H](n2c(=O)n(CO)c3cc(OCCN4CCC5(CC4)C(=O)Nc4ccc(C#N)cc45)cc(C(F)(F)F)c32)C1 [Compound 469, 1′-(2-{[3-(hydroxymethyl)-2-oxo-1-[(cis)-3-hydroxy-3-methylcyclobutyl]-7-(trifluoromethyl)-2,3-dihydro-1H-1,3-benzodiazol-5-yl]oxy}ethyl)-2-oxo-1,2-dihydrospiro[indole-3,4′-piperidine]-5-carbonitrile] | 19.9 | 48.7 | 5.33 | 15.5 | 9.76 |
